Data: US9561212B2, “Hepatitis C virus inhibitors” (BRISTOL-MYERS SQUIBB COMPANY, priority 2012, dated 2017)
Where two headings read alike, the source gives them in different places.

Test system: HCV 1b genotype
Test: microbe, parasite or virus in culture
Assay type: cell-based, Hepatitis C virus
Details: read-out: Range: EC50 ranges against HCV 1b
[1] = Hepatitis C virus, HCV 1b replicon

## COC(=O)NC(C(=O)N1[C@@H]2C[C@@H]2C[C@H]1c1nc(-c2ccc(-c3ccc4c(c3)CCc3[nH]c([C@@H]5C[C@H]6C[C@H]6N5C(=O)C(NC(=O)OC)C5CCOC6(CC6)C5)nc3-4)cc2)c[nH]1)C1CCOC2(CC2)C1 (stereo partly drawn) [QC11, methyl (2-((1R,3S,5R)-3-(4-(4-(2-((1R,3S,5R)-2-(((methoxycarbonyl)amino)(4-oxaspiro[2.5]oct-7-yl)acetyl)-2-azabicyclo[3.1.0]hex-3-yl)-4,5-dihydro-3H-naphtho[1,2-d]imidazol-7-yl)phenyl)-1H-imidazol-2-yl)-2-azabicyclo[3.1.0]hex-2-yl)-1-(4-oxaspiro[2.5]oct-7-yl)-2-oxoethyl)carbamate]
[1]
  EC50: 0.00501 to 0.1 nM

## COC(=O)N[C@H](C(=O)N1C(CO)CCC1c1ncc(-c2ccc(-c3ccc(-c4cnc(C5CCC(CO)N5C(=O)[C@@H](NC(=O)OC)C5C[C@@H](C)O[C@H](C)C5)[nH]4)cc3)cc2)[nH]1)C1C[C@@H](C)O[C@H](C)C1 (single isomer, unassigned) [Example 11.1]
[1]
  EC50: 0.9 to 700 nM

## COC(=O)NC(C(=O)N1CCOCC1c1ncc(-c2ccc(-c3ccc(-c4cnc(C5COCCN5C(=O)C(NC(=O)OC)C5CCOC6(CC6)C5)[nH]4)cc3)cc2)[nH]1)C1CCOC2(CC2)C1 [OL8, dimethyl (((3R,3′R)-3,3′-(5,5'-([1,1′-biphenyl]-4,4′-diyl)bis(1H-imidazole-5,2-diyl))bis(morpholine-4,3-diyl))bis(2-oxo-1-(4-oxaspiro[2.5]octan-7-yl)ethane-2,1 diyl))dicarbamate]
  EC50: 0.1 to 0.9 nM
